Measured values reported in the kinase profiling compilation of Christmann-Franck et al. (2016).
One block for each molecule: values may come before it.

Legend:
Test in all cases: KINOMEscan competition binding
RPS6KA6 KD2 (human) = RPS6KA6 KD2 (human) (UniProt Q9UK32); conditions: compound 10.0 µM
MAPK8 (human) = MAPK8 (human) (UniProt P45983); conditions: compound 10.0 µM
[1] = tested on: KIT (human), P10721 [D816V]; conditions: compound 10.0 µM
PIP5K1A (human) = PIP5K1A (human) (UniProt Q99755); conditions: compound 10.0 µM
PRKD1 (human) = PRKD1 (human) (UniProt Q15139); conditions: compound 10.0 µM
BMP2K (human) = BMP2K (human) (UniProt Q9NSY1); conditions: compound 10.0 µM
TTK (human) = TTK (human) (UniProt P33981); conditions: compound 10.0 µM
PRKD3 (human) = PRKD3 (human) (UniProt O94806); conditions: compound 10.0 µM
STK11 (human) = STK11 (human) (UniProt Q15831); conditions: compound 10.0 µM
DAPK3 (human) = DAPK3 (human) (UniProt O43293); conditions: compound 10.0 µM
[2] = tested on: EGFR (human), P00533 [747-751 del / S ins]; conditions: compound 10.0 µM
AURKB (human) = AURKB (human) (UniProt Q96GD4); conditions: compound 10.0 µM
BRSK2 (human) = BRSK2 (human) (UniProt Q8IWQ3); conditions: compound 10.0 µM
MAP2K3 (human) = MAP2K3 (human) (UniProt P46734); conditions: compound 10.0 µM
CLK4 (human) = CLK4 (human) (UniProt Q9HAZ1); conditions: compound 10.0 µM
STK17B (human) = STK17B (human) (UniProt O94768); conditions: for kinase still bound, per cent of control: compound 10.0 µM
CSNK2A2 (human) = CSNK2A2 (human) (UniProt P19784); conditions: for kinase still bound, per cent of control: compound 10.0 µM
RPS6KA2 KD2 (human) = RPS6KA2 KD2 (human) (UniProt Q15349); conditions: compound 10.0 µM
RPS6KA4 KD2 (human) = RPS6KA4 KD2 (human) (UniProt O75676); conditions: compound 10.0 µM
RIPK2 (human) = RIPK2 (human) (UniProt O43353); conditions: compound 10.0 µM
MELK (human) = MELK (human) (UniProt Q14680); conditions: compound 10.0 µM
MKNK2 (human) = MKNK2 (human) (UniProt Q9HBH9); conditions: compound 10.0 µM
CIT (human) = CIT (human) (UniProt O14578); conditions: compound 10.0 µM
SRPK2 (human) = SRPK2 (human) (UniProt P78362); conditions: compound 10.0 µM
CLK1 (human) = CLK1 (human) (UniProt P49759); conditions: for kinase still bound, per cent of control: compound 10.0 µM
GAK (human) = GAK (human) (UniProt O14976); conditions: compound 10.0 µM
PIK3CG (human) = PIK3CG (human) (UniProt P48736); conditions: compound 10.0 µM
[3] = tested on: FLT3 (human), P36888 [ITD]; conditions: compound 10.0 µM
TNIK (human) = TNIK (human) (UniProt Q9UKE5); conditions: compound 10.0 µM
[4] = tested on: KIT (human), P10721 [V559D/V654A]; conditions: compound 10.0 µM
PLK4 (human) = PLK4 (human) (UniProt O00444); conditions: compound 10.0 µM
ULK2 (human) = ULK2 (human) (UniProt Q8IYT8); conditions: for kinase still bound, per cent of control: compound 10.0 µM
DYRK1B (human) = DYRK1B (human) (UniProt Q9Y463); conditions: compound 10.0 µM
PIM3 (human) = PIM3 (human) (UniProt Q86V86); conditions: for kinase still bound, per cent of control: compound 10.0 µM
[5] = tested on: FLT3 (human), P36888 [D835Y]; conditions: compound 10.0 µM
MAP4K2 (human) = MAP4K2 (human) (UniProt Q12851); conditions: compound 10.0 µM
PIM2 (human) = PIM2 (human) (UniProt Q9P1W9); conditions: compound 10.0 µM
[6] = target: TYK2 JH2 pseudokinase (human) (UniProt P29597); conditions: compound 10.0 µM
TLK1 (human) = TLK1 (human) (UniProt Q9UKI8); conditions: compound 10.0 µM
[7] = tested on: KIT (human), P10721 [V559D/T670I]; conditions: compound 10.0 µM
TAOK1 (human) = TAOK1 (human) (UniProt Q7L7X3); conditions: compound 10.0 µM
MAP3K7 (human) = MAP3K7 (human) (UniProt O43318); conditions: compound 10.0 µM
Sequence of MAP3K7 (human) (O43318 whole entry, looked up): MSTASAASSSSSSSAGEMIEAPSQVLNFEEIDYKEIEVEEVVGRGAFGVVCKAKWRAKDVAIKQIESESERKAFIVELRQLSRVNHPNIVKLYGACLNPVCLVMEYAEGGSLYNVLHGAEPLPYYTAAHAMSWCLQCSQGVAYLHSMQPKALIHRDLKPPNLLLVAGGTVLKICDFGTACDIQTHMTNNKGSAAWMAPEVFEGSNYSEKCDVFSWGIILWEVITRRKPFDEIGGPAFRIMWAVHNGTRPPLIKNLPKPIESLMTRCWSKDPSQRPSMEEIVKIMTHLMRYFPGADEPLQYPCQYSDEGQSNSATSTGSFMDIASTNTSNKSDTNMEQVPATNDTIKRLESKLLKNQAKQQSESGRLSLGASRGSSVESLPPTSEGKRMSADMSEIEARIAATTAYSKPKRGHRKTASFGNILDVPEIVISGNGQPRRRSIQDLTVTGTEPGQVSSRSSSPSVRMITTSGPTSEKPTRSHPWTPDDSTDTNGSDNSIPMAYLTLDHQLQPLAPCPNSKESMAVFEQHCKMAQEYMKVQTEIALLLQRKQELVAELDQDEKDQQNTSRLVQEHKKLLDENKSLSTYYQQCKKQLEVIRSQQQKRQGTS

Sequence of CSNK2A2 (human) (P19784 whole entry, looked up): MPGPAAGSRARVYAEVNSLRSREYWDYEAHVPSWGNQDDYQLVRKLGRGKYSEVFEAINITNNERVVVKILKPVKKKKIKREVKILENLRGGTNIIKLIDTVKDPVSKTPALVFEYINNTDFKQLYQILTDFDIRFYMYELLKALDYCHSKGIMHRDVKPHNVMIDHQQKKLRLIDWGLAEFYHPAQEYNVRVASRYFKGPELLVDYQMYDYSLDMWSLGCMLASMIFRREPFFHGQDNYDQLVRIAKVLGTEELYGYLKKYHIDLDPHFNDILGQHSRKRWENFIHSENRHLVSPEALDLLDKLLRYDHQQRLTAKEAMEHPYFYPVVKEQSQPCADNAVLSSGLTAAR
Sequence of STK17B (human) (O94768 whole entry, looked up): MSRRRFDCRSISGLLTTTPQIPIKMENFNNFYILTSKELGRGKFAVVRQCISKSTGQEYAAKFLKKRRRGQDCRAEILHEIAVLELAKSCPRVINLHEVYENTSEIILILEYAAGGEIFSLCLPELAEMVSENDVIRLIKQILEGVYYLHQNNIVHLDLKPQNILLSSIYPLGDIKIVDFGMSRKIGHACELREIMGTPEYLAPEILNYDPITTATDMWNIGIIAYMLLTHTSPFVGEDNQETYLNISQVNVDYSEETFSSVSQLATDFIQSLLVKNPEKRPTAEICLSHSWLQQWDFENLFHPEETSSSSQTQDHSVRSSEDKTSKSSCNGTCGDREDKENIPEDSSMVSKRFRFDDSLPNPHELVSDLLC
Sequence of CLK1 (human) (P49759 whole entry, looked up): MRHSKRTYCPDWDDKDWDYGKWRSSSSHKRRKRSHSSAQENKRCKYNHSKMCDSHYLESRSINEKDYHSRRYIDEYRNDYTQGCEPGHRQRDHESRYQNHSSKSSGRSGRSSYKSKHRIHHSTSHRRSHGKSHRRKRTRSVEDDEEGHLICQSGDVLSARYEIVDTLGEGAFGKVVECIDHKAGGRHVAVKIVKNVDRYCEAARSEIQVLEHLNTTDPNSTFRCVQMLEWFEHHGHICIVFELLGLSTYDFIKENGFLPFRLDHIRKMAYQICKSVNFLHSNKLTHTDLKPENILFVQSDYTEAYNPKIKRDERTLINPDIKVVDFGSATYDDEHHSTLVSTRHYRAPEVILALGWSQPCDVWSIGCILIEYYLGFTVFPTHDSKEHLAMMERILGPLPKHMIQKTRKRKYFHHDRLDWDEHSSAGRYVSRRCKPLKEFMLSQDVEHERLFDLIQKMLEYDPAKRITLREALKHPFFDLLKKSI
Sequence of ULK2 (human) (Q8IYT8 whole entry, looked up): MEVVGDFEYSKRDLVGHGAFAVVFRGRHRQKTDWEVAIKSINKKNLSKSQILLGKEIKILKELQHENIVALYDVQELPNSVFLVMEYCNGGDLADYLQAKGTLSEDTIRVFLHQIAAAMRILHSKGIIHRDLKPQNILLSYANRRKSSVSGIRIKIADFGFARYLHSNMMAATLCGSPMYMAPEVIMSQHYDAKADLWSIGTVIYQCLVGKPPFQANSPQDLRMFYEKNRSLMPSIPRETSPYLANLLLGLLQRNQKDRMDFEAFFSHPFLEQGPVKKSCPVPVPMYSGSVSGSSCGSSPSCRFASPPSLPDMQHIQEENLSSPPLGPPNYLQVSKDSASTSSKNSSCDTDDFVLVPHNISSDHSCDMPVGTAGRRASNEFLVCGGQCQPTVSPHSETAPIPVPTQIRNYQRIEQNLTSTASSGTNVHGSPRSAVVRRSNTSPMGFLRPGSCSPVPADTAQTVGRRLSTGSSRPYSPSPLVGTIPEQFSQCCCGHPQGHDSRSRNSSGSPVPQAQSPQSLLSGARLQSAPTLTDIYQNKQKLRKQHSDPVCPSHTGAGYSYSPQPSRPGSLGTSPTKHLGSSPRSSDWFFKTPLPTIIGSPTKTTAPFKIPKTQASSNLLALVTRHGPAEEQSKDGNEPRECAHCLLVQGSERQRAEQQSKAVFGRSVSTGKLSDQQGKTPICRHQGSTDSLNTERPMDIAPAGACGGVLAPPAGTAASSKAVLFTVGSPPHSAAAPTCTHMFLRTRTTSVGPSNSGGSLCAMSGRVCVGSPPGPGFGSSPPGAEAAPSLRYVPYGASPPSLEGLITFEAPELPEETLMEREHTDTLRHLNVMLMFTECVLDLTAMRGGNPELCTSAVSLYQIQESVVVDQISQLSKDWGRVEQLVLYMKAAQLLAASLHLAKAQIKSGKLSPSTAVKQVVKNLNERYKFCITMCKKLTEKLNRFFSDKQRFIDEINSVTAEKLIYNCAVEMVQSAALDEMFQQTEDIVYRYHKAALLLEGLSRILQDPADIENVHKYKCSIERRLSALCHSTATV
Sequence of STK11 (human) (Q15831 whole entry, looked up): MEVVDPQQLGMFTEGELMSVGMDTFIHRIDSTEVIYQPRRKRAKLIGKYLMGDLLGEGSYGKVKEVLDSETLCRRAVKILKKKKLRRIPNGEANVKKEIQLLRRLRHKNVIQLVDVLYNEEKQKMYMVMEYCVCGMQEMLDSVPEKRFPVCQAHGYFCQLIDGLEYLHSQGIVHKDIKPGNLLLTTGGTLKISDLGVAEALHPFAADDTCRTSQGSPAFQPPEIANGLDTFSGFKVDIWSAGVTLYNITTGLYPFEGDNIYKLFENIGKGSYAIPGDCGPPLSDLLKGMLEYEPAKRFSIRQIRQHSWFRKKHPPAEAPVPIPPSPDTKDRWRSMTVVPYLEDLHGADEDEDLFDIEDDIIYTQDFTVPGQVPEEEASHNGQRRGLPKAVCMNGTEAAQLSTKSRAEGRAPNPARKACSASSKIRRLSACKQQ
Sequence of PRKD1 (human) (Q15139 whole entry, looked up): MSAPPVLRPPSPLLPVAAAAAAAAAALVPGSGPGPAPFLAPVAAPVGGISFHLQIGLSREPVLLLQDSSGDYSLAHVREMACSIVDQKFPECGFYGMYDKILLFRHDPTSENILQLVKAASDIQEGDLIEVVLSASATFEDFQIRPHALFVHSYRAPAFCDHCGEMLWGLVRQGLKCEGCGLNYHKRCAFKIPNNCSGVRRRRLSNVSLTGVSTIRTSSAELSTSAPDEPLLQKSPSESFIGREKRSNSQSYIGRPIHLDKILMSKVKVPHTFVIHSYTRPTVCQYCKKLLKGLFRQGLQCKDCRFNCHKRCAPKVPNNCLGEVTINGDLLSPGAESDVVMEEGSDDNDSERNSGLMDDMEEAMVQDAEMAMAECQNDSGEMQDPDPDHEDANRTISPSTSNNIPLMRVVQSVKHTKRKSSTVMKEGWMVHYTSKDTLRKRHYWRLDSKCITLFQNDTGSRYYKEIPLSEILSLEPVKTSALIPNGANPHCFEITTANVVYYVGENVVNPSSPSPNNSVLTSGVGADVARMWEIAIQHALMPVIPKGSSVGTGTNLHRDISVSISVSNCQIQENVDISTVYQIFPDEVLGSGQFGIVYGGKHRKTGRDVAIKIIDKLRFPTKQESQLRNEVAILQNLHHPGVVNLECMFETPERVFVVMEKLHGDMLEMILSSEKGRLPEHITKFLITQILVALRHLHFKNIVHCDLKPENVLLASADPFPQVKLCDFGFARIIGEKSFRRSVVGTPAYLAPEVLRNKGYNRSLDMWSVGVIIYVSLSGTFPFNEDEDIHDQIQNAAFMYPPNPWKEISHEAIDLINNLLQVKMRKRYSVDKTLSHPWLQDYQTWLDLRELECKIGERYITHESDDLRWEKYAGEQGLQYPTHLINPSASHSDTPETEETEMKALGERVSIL
Sequence of MAP2K3 (human) (P46734 whole entry, looked up): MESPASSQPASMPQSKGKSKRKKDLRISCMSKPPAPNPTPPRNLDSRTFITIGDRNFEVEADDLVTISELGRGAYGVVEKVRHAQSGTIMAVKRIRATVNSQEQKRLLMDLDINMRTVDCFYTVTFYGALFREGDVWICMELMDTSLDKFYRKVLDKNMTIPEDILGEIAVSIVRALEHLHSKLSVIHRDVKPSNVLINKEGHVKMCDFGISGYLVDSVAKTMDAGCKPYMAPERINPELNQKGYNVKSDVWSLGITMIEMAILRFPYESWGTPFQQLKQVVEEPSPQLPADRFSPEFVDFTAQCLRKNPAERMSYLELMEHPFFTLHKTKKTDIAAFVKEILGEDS

kinase still bound, per cent of control (RPS6KA6 KD2 (human)): 96% | kinase still bound, per cent of control (MAPK8 (human)): 100% | kinase still bound, per cent of control [1]: 100% | kinase still bound, per cent of control (PIP5K1A (human)): 100% | kinase still bound, per cent of control (PRKD1 (human)): 100% | kinase still bound, per cent of control (BMP2K (human)): 100% | kinase still bound, per cent of control (TTK (human)): 100% | kinase still bound, per cent of control (PRKD3 (human)): 100% | kinase still bound, per cent of control (STK11 (human)): 100% | kinase still bound, per cent of control (DAPK3 (human)): 95% | kinase still bound, per cent of control [2]: 99% | kinase still bound, per cent of control (AURKB (human)): 100% | kinase still bound, per cent of control (BRSK2 (human)): 100% | kinase still bound, per cent of control (MAP2K3 (human)): 74% | kinase still bound, per cent of control (CLK4 (human)): 100% | kinase still bound, per cent of control (STK17B (human)): 100% | kinase still bound, per cent of control (CSNK2A2 (human)): 76% | kinase still bound, per cent of control (RPS6KA2 KD2 (human)): 93% | kinase still bound, per cent of control (RPS6KA4 KD2 (human)): 100% | kinase still bound, per cent of control (RIPK2 (human)): 100% | kinase still bound, per cent of control (MELK (human)): 100% | kinase still bound, per cent of control (MKNK2 (human)): 72% | kinase still bound, per cent of control (CIT (human)): 100% | kinase still bound, per cent of control (SRPK2 (human)): 100% | kinase still bound, per cent of control (CLK1 (human)): 100% | kinase still bound, per cent of control (GAK (human)): 100% | kinase still bound, per cent of control (PIK3CG (human)): 96% | kinase still bound, per cent of control [3]: 100% | kinase still bound, per cent of control (TNIK (human)): 100% | kinase still bound, per cent of control [4]: 100% | kinase still bound, per cent of control (PLK4 (human)): 97% | kinase still bound, per cent of control (ULK2 (human)): 89% | kinase still bound, per cent of control (DYRK1B (human)): 100% | kinase still bound, per cent of control (PIM3 (human)): 100% | kinase still bound, per cent of control [5]: 87% | kinase still bound, per cent of control (MAP4K2 (human)): 80% | kinase still bound, per cent of control (PIM2 (human)): 100% | kinase still bound, per cent of control [6]: 63% | kinase still bound, per cent of control (TLK1 (human)): 100% | kinase still bound, per cent of control [7]: 100% | kinase still bound, per cent of control (TAOK1 (human)): 60% | kinase still bound, per cent of control (MAP3K7 (human)): 87%
SMILES: CN1C(=O)c2ccccc2N(C)c2nc(NS(=O)(=O)c3ccc(N)cc3)ncc21

kinase still bound, per cent of control (RPS6KA6 KD2 (human)): 29% | kinase still bound, per cent of control (MAPK8 (human)): 60% | kinase still bound, per cent of control [1]: 76% | kinase still bound, per cent of control (PIP5K1A (human)): 28% | kinase still bound, per cent of control (PRKD1 (human)): 8.2% | kinase still bound, per cent of control (BMP2K (human)): 2% | kinase still bound, per cent of control (TTK (human)): 59% | kinase still bound, per cent of control (PRKD3 (human)): 13% | kinase still bound, per cent of control (STK11 (human)): 17% | kinase still bound, per cent of control (DAPK3 (human)): 1% | kinase still bound, per cent of control [2]: 85% | kinase still bound, per cent of control (AURKB (human)): 71% | kinase still bound, per cent of control (BRSK2 (human)): 100% | kinase still bound, per cent of control (MAP2K3 (human)): 65% | kinase still bound, per cent of control (CLK4 (human)): 15% | Kd (STK17B (human)): 130 nM | kinase still bound, per cent of control (STK17B (human)): 0.15% | Kd (CSNK2A2 (human)): 6.1 nM | kinase still bound, per cent of control (CSNK2A2 (human)): 0% | kinase still bound, per cent of control (RPS6KA2 KD2 (human)): 1.2% | kinase still bound, per cent of control (RPS6KA4 KD2 (human)): 3.2% | kinase still bound, per cent of control (RIPK2 (human)): 9.9% | kinase still bound, per cent of control (MELK (human)): 24% | kinase still bound, per cent of control (MKNK2 (human)): 93% | kinase still bound, per cent of control (CIT (human)): 37% | kinase still bound, per cent of control (SRPK2 (human)): 10% | Kd (CLK1 (human)): 240 nM | kinase still bound, per cent of control (CLK1 (human)): 0.3% | kinase still bound, per cent of control (GAK (human)): 3.2% | kinase still bound, per cent of control (PIK3CG (human)): 0.3% | kinase still bound, per cent of control [3]: 75% | kinase still bound, per cent of control (TNIK (human)): 11% | kinase still bound, per cent of control [4]: 99% | kinase still bound, per cent of control (PLK4 (human)): 90% | Kd (ULK2 (human)): 220 nM | kinase still bound, per cent of control (ULK2 (human)): 0.85% | kinase still bound, per cent of control (DYRK1B (human)): 3% | Kd (PIM3 (human)): 3.7 nM | kinase still bound, per cent of control (PIM3 (human)): 0.65% | kinase still bound, per cent of control [5]: 60% | kinase still bound, per cent of control (MAP4K2 (human)): 32% | kinase still bound, per cent of control (PIM2 (human)): 1.1% | kinase still bound, per cent of control [6]: 72% | kinase still bound, per cent of control (TLK1 (human)): 66% | kinase still bound, per cent of control [7]: 72% | kinase still bound, per cent of control (TAOK1 (human)): 24% | kinase still bound, per cent of control (MAP3K7 (human)): 91%
SMILES: O=C1NC(=O)/C(=C/c2c[nH]c(=O)c(-c3ccc(N4CCNCC4)nc3)c2)S1
